From the supplement of paper PMC10307832

Tests used:
Experiment in all cases: relative viability (nuclei count vs DMSO), 5 days (fraction); higher = more cells survive
Neratinib + Lapatinib = compound: CCOc1cc2ncc(C#N)c(Nc3ccc(OCc4ccccn4)c(Cl)c3)c2cc1NC(=O)/C=C/CN(C)C [Neratinib] + CS(=O)(=O)CCNCc1ccc(-c2ccc3ncnc(Nc4ccc(OCc5cccc(F)c5)c(Cl)c4)c3c2)o1 [Lapatinib] (partner 2 µM)
In short: (§1)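 Lung cancer cell lines, seeded in 1536-well plates, were treated the following day by pin tool with a single drug or with five library-drug doses (not always all listed) in √10 steps on top of a fixed anchor-drug dose. Cells were fixed and nuclei stained in one step after 5 days, and nuclei were counted. Relative viability is the nuclei count for treated wells divided by that for vehicle wells, reported as medians of duplicate plates.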

Neratinib + Olaparib = compound: CCOc1cc2ncc(C#N)c(Nc3ccc(OCc4ccccn4)c(Cl)c3)c2cc1NC(=O)/C=C/CN(C)C [Neratinib] + O=C(c1cc(Cc2n[nH]c(=O)c3ccccc23)ccc1F)N1CCN(C(=O)C2CC2)CC1 [Olaparib] (partner 8 µM)
In short: as §1

Neratinib + Phenformin = compound: CCOc1cc2ncc(C#N)c(Nc3ccc(OCc4ccccn4)c(Cl)c3)c2cc1NC(=O)/C=C/CN(C)C [Neratinib] + N=C(N)NC(=N)NCCc1ccccc1 [Phenformin] (partner 250 µM)
In short: as §1

Neratinib + Trametinib = compound: CCOc1cc2ncc(C#N)c(Nc3ccc(OCc4ccccn4)c(Cl)c3)c2cc1NC(=O)/C=C/CN(C)C [Neratinib] + CC(=O)Nc1cccc(-n2c(=O)n(C3CC3)c(=O)c3c(Nc4ccc(I)cc4F)n(C)c(=O)c(C)c32)c1 [Trametinib] (partner 0.02 µM)
In short: as §1

| Cell Line | relative viability (Neratinib + Lapatinib; first compound 0.01 µM) | relative viability (Neratinib + Lapatinib; first compound 0.03162 µM) | relative viability (Neratinib + Lapatinib; first compound 0.1 µM) | relative viability (Neratinib + Lapatinib; first compound 0.3162 µM) | relative viability (Neratinib + Lapatinib; first compound 1 µM) | relative viability (Neratinib + Olaparib; first compound 0.01 µM) | relative viability (Neratinib + Olaparib; first compound 0.03162 µM) | relative viability (Neratinib + Olaparib; first compound 0.1 µM) | relative viability (Neratinib + Olaparib; first compound 0.3162 µM) | relative viability (Neratinib + Olaparib; first compound 1 µM) | relative viability (Neratinib + Phenformin; first compound 0.01 µM) | relative viability (Neratinib + Phenformin; first compound 0.03162 µM) | relative viability (Neratinib + Phenformin; first compound 0.1 µM) | relative viability (Neratinib + Phenformin; first compound 0.3162 µM) | relative viability (Neratinib + Phenformin; first compound 1 µM) | relative viability (Neratinib + Trametinib; first compound 0.01 µM) | relative viability (Neratinib + Trametinib; first compound 0.03162 µM) | relative viability (Neratinib + Trametinib; first compound 0.1 µM) | relative viability (Neratinib + Trametinib; first compound 0.3162 µM) | relative viability (Neratinib + Trametinib; first compound 1 µM) |
| --- | --- | --- | --- | --- | --- | --- | --- | --- | --- | --- | --- | --- | --- | --- | --- | --- | --- | --- | --- | --- |
| NCI-H661 | 0.563 | 0.45 | 0.431 | 0.427 | 0.312 | 0.838 | 0.743 | 0.555 | 0.605 | 0.534 | 0.274 | 0.242 | 0.285 | 0.247 | 0.251 | 0.63 | 0.568 | 0.447 | 0.352 | 0.276 |
| NCI-H1993 | 0.88 | 0.795 | 0.79 | 0.845 | 0.803 | 1.33 | 1.06 | 0.996 | 0.704 |  | 0.365 | 0.523 | 0.533 | 0.626 | 0.567 | 0.445 | 0.505 | 0.512 | 0.419 | 0.54 |
| NCI-H460 | 1.15 | 1.38 |  | 0.921 | 0.557 | 0.428 | 0.43 | 0.383 | 0.415 | 0.419 | 0.58 | 0.675 | 0.414 | 0.491 | 0.341 | 0.233 | 0.116 | 0.083 | 0.154 | 0.0847 |
| NCI-H838 | 1.11 | 1.2 | 0.949 | 0.947 | 0.468 | 0.762 | 0.785 | 0.798 | 0.649 | 0.399 | 0.63 | 0.669 | 0.579 | 0.433 | 0.234 | 0.53 | 0.554 | 0.502 | 0.499 | 0.281 |
| SK-MES-1 | 0.512 | 0.479 | 0.393 | 0.435 | 0.364 | 0.807 | 0.778 | 0.631 | 0.264 | 0.233 | 0.675 | 0.706 | 0.665 | 0.285 | 0.2 | 0.648 | 0.564 | 0.564 | 0.332 |  |
| NCI-H1792 | 1.02 | 1.08 | 0.547 | 0.81 | 0.849 | 0.0369 | 0.65 | 0.376 | 0.257 | 0.174 | 0.298 | 0.2 | 0.292 | 0.261 | 0.26 | 0.476 | 0.663 | 0.423 | 0.39 | 0.26 |
| NCI-H1355 | 1.09 | 1.06 | 1.04 | 0.984 | 0.938 | 0.772 | 0.719 | 0.7 | 0.701 | 0.547 | 0.485 | 0.433 | 0.408 | 0.417 | 0.427 | 0.422 | 0.421 | 0.344 | 0.361 | 0.349 |
| NCI-H596 | 1.2 | 1.06 |  | 1.13 | 0.859 | 0.633 | 0.726 | 0.622 | 0.659 | 0.574 | 0.754 | 0.895 | 0.75 | 0.695 | 0.562 | 0.825 | 0.947 | 0.765 | 0.707 | 0.641 |
| NCI-H2405 | 1.26 | 1.04 | 1.04 | 1.16 | 0.804 | 0.892 | 0.93 | 0.85 | 0.908 | 0.619 | 0.421 | 0.393 | 0.414 | 0.33 | 0.359 | 0.682 | 0.612 |  | 0.465 | 0.513 |
| LCLC-97TM1 | 1.29 | 1.01 | 1.02 | 0.637 | 0.275 | 0.31 | 0.437 | 0.329 |  | 0.234 | 0.461 | 0.462 | 0.379 | 0.29 | 0.177 | 0.187 | 0.193 | 0.192 |  | 0.112 |
| EMC-BAC-2 | 1.03 | 0.965 | 0.826 | 0.856 | 0.864 | 0.521 | 0.481 | 0.501 | 0.528 | 0.45 | 0.586 | 0.554 | 0.505 | 0.451 | 0.377 | 0.949 | 0.885 | 0.855 | 0.793 | 0.671 |
| NCI-H1975 | 1.09 | 0.972 | 0.609 | 0.403 | 0.191 | 0.917 | 0.96 | 0.644 | 0.43 | 0.18 | 0.434 | 0.446 | 0.403 | 0.211 | 0.161 | 0.388 | 0.542 | 0.373 | 0.233 | 0.165 |
| BEN | 0.739 | 1.12 | 0.464 | 0.59 | 0.565 | 1.15 | 1.21 | 0.863 | 0.932 | 0.816 | 0.259 | 0.279 | 0.22 | 0.251 | 0.248 | 1.02 | 1.2 | 1 | 0.883 | 0.792 |
| NCI-H2347 | 0.812 | 1.04 | 0.94 | 0.952 | 0.83 |  | 0.59 | 0.545 | 0.564 | 0.455 | 0.416 | 0.565 |  | 0.338 | 0.244 | 0.264 | 0.317 | 0.262 | 0.248 | 0.266 |
| NCI-H650 | 1.04 | 1.02 | 0.996 |  | 1.04 | 0.39 | 0.434 | 0.372 | 0.318 | 0.392 | 0.509 | 0.505 | 0.493 | 0.392 | 0.423 | 0.968 | 1.03 | 1.16 |  | 0.937 |
| CAL-12T | 0.725 | 0.702 | 0.529 | 0.635 | 0.295 | 0.698 | 0.707 | 0.709 | 0.406 | 0.343 | 0.55 | 0.572 | 0.488 | 0.254 | 0.179 | 0.322 | 0.322 | 0.236 | 0.254 | 0.223 |
